# Measurements: US20230181535A1, “UBIQUITIN-LIGASE INHIBITORS FOR THE TREATMENT OF CANCER” (FUNDACIÓN PROFESOR NOVOA SANTOS, priority 2020, published 2023)
# Tests used:
# [1] = system: LoVo cells; assay: Invasion assay, LoVo; assay type: cell-based; conditions: treated 48 h
# Experimental: For invasion assays, cells were treated with Hakin-1 or DMSO as vehicle for 48 h using 1% FBS during the last 24 hours. 3×10^5 MDCK, MDCK-Hakai or LoVo cells were seeded in a cell invasion chamber (Cell invasion assay kit, Chemicon International) containing medium with 2% FBS. After 72 hours for MDCK and MDCK-Hakai Invasive and 16 h for LoVo cells, invasive cells invaded that reach the lower chamber containing 30% FBS were fixed and stained with crystal violet (Sigma Aldrich, St Louis, Mo.) following the manufacturer's specifications. For migration assays, HT29 cells were cultured with Hakin-1 or DMSO as vehicle for 48 h, using medium without serum the last 24 h. In the cell migration chamber were seeded 3×10^5 HT29 cells (Cell migration kit, Millipore, Bedford, Mass.) containing medium without serum. After 16 h, migrated cells in the lower chamber containing serum with 30% FBS were stained with crystal violet and counted following the manufacturer's specifications. For both invasion and migration assays cells were counted in five fields photographed with an Olympus microscope using a 20× objective, experiments were performed in triplicates for each condition and the assays were repeated at least three times. Results are expressed as mean±SD.
# [2] = system: renal cancer ACHN cells; assay: BrdU proliferation assay, ACHN; assay type: cell-based, human; conditions: 48 h
# Experimental: (§1) For BrdU assays, 1×10^4 of indicated cells were plated per well into a 96-well plate. After 24 h, cells were treated with the indicated inhibitors for 48 h. Three independent experiments were plated with six replicates per each condition. Cells were treated with […] BrdU for 2 h. BrdU incorporation into newly synthesized DNA was measured using a cell proliferation colorimetric immunoassay kit according to the manufacturer's instructions (Roche, Switzerland). Results are expressed as mean±S.D. Results are represented as percentage of positive cells (mean±S.D) of three independent experiments.
# [3] = system: prostate cancer PC-3 cells; assay: BrdU proliferation assay, PC-3; assay type: cell-based, human; conditions: 48 h
# Experimental: as §1
# [4] = system: epithelial MDCK cells; assay: Phase-contrast cell phenotype, MDCK; assay type: cell-based
# Experimental: MDCK, HEK293T, HepG2, MCF7 and ACHN cells were cultured in Dulbecco's Modified Eagles Medium (DMEM). MDCK stably expressing Hakai cells (Hakai-MDCK) were previously reported and were growth in DMEM with G418 (800 μg/ml). […] LoVo and PC-3 cells were cultured in F-12K Medium (Kaighn's Modification of Ham's F-12 Medium) and HT-29 and HCT116 cells in McCoy's 5a Medium Modified. 5637 cells were cultured in RPMI medium. All culture media were supplemented with 1% penicillin/streptomycin and 10% of heat-inactivated fetal bovine serum (FBS) at 37° C. in a humidified incubator with 5% CO2. Cells were monthly tested for mycoplasma contamination and used only for 1-3 months after defrosted. LoVo and HT29 cells were authenticated with the StemElite ID system (Promega). For phase-contrast images, culture cells were photographed with a Nikon Eclipse-TI microscope.
# [5] = system: LoVo cells; assay: Western blotting of EMT markers, LoVo; assay type: cell-based; conditions: 48 h
# Experimental: (§2) For western blot analysis, cells were treated with the indicated inhibitors for 48 h and the whole cell extracts were obtained as described previously. Twenty micrograms of lysates were resolved on a 10% polyacrilamide SDS-PAGE followed by western blot analysis performed as previously described. For immunofluorescence assays cells were grown for 24 h on glass coverslips and treated with the indicated inhibitors for 48 h. Cells were fixed with 4% PFA for 15 min, permeabilized with 0.5% […] and incubated with E-cadherin antibody for 2 h. Coverslips were incubated with fluorescein-tagged secondary antibody (Dakopatts, Sweden) for […]. Finally coverslips were mounted with ProLong Gold antifade reagent (LifeTech, UK) and images were taken in epifluorescence microscope (Olympus) using 40× objective. […] One set of SIM Synthetic Focus images were taken in the DAPI channel for Hoechst 33342 staining, and another set of images were taken in the FITC channel for anti-E-cadherin-AlexaFluor488 labeling and analysed by Structured Illumination Microscopy (SIM™) platform to image the cells and Vala's CyteSeer® Cell-Cell Junction Algorithm to quantify the degree of expression and intracellular location of E-cadherin Vala's CyteSeer® Software can also measure relative DNA content by analyzing Total Integrated Intensity (TII) of the Nuclear Image (Ni) on the Nuclear Mask (Nm). […]
# [6] = system: Hakai-MDCK cell lines (clone 4 and clone 11); assay: MTT cell viability assay, Hakai-MDCK; assay type: cell-based; conditions: Hakai-MDCK clone 4 and clone 11, compared with MDCK
# Experimental: For cytotoxicity assays, 1×10^4 cells were seeded per well into a 96-well plate. After 24 h cells were treated with the indicated inhibitors for 72 h and a MTT colorimetric cell viability assay was performed following manufacturer's instructions (Sigma Aldrich, St Louis, Mo.). Absorbance was measured at 570 and 630 nm using a Multiskan Plus Reader (Nanoquant Infinite M200 Tecan Trading AG, Switzerland). Dose-response curves were designed with Graph Pad Prism Software and the half-maximal inhibitory concentration (IC50) values were calculated. Represented data are the mean±SEM of at least three independent experiments with six replicates per condition.
# [7] = Hepatocyte stability, human; assay type: in vitro ADME; conditions: cryopreserved human hepatocytes in suspension, read-out: estimated half-life
# Experimental: Test compound (final substrate concentration 3 μM; final DMSO concentration 0.25%) were pre-incubated at 37° C., prior to the addition of a suspension of cryopreserved hepatocytes (final cell density 0.5×10^6 viable cells/mL in Williams E media supplemented with 2 mM L glutamine and 25 mM HEPES) to initiate the reaction. The reactions were stopped with acetonitrile containing internal standard at the appropriate time points ([…]). The termination plates were centrifuged at 2500 rpm at 4° C. for 30 minute to precipitate the protein. Following the hepatocyte stability assays, the samples were utilized for metabolite profiling. Hepatocyte stability in mouse and human was performed by using the incubation of tested compound (3 μM) with cryopreserved hepatocytes in suspension. Samples were removed at 6 time points over the course of a 60 min experiment and remaining test compound at each time point was analysed by using LC-MS/MS. Then, data was analysed and an intrinsic clearance (CLint) with standard error and half-life (t½) reported.
# [8] = system: breast cancer MCF7 cell; assay: BrdU proliferation assay, MCF7; assay type: cell-based, human; conditions: 48 h
# Experimental: as §1
# [9] = system: mesenchymal Hakai-MDCK cells; assay: E-cadherin protein levels in Hakai-MDCK cells; assay type: cell-based; conditions: Hakai-MDCK cells (no basal E-cadherin)
# Experimental: as §2
compound,measurement,setting,value
"O=C(O)c1ccc(-n2nnnc2SCC(=O)c2ccc([N+](=O)[O-])cc2)cc1 [Hakin-1, 4-(5-[2-(4-nitrophenyl)-2-oxoethyl]thiol-1H-tetrazol-1-yl)benzoic acid]",cell invasion,[1],strongly reduced cell invasion
same,cell proliferation (BrdU),[2],inhibited cell proliferation
same,cell proliferation (BrdU),[3],inhibited cell proliferation
same,cell phenotype by phase contrast,[4],no effect was observed
same,EMT markers (western blotting),[5],confirmed these results
same,"sensitivity to treatment (cell viability, MTT)",[6],more sensitive
same,half-life at 3 μM,[7],2.33 h
same,cell proliferation (BrdU),[8],inhibited cell proliferation
same,E-cadherin protein levels,[9],no recovery was detected
